Columns and labels:
[1] = system: mouse bone marrow-derived mast cells; assay: Histamine-induced mast cell chemotaxis in vitro (transwell); type: cell-based; conditions: Mus musculus, Mast cell
Method: Mast cells were differentiated from bone marrow derived from BALB/c or C57bl/6j mice. Mice were sacrificed by asphyxiation under 95% CO2 and femurs were removed. Bone marrow was aseptically isolated from the femurs. The cells (5×10^5/mL) were cultured at 37° C. with 5% CO2 in culture medium consisting of RPMI with 10% FCS, 0.1 mM non-essential amino acids, 50 μg/mL penicillin/streptomycin and 20% conditioned WEHI-3 medium. Conditioned WEHI-3 medium was prepared from WEHI-3 cells (ATCC), which were cultured in Iscoves Dulbeccos medium with 10% FCS, 4 mM L-glutamine, 1.5 g/L sodium carbonate, 0.05 μM beta-mercaptoethanol and 50 μg/mL penicillin/streptomycin. The filtered supernatant was used as the conditioned WEHI-3 medium. After 16 h in culture, the bone marrow cells were transferred to a new flask. The medium was refreshed once per week. After four weeks, the cells were tested by flow cytometry for IgE receptor and CD117 (c-kit) expression. Mast cells were incubated with anti-DNP IgE (ICN Pharmaceuticals, Costa Mesa, Calif.) or vehicle for 30 min, followed by FITC labeled anti-IgE (Pharmingen) or FITC labeled CD117 (Pharmingen) for 30 min on ice. The cultured mast cells consisted of a homogeneous population which was >99% IgE receptor positive and >99% CD117 positive. Mast cells of four to eight weeks culture time were used for experiments.
Transwells (Costar, Cambridge, Mass.) of a pore size of […] were coated with 100 μL of 100 ng/mL human fibronectin (Sigma) for 2 h at room temperature. […] Mast cells (2×10^5/well) were added to the top chamber. The plates were incubated for 3 h at 37° C. Transwells were removed and the number of cells in the bottom chamber was counted for 60 sec using a flow cytometer.

[2] = system: ovalbumin-sensitized mice; assay: Ovalbumin-induced lung inflammation model, cell counts in BAL fluid; type: in vivo, mouse; conditions: for maximum reduction in the number of eosinophils: BAL fluid
[3] = system: ovalbumin-sensitized mice; assay: Airway hyper-responsiveness to methacholine in ovalbumin-sensitized mice (whole body plethysmography); type: in vivo, mouse; conditions: any of the first three doses, FIG. 7
Method: Mice (n=8 per group) were sensitized by intraperitoneal injection of ovalbumin/alum on Days 0 and 14. On each of Days 21 through 24, mice were pretreated for 15 min with vehicle or with (5-chloro-1H-benzoimidazol-2-yl)-(4-methyl-piperazin-1-yl)-methanone prior to a 20 min challenge with PBS or ovalbumin.
In one experiment, (5-chloro-1H-benzoimidazol-2-yl)-(4-methyl-piperazin-1-yl)-methanone was administered p.o. at 5, 20, or 50 mg/kg. In a second experiment, (5-chloro-1H-benzoimidazol-2-yl)-(4-methyl-piperazin-1-yl)-methanone was administered p.o. at 0.5, 2, or 5 mg/kg.
Airway hyper-responsiveness in ovalbumin-sensitized animals was monitored in conscious mice by whole body plethysmography (Buxco). Mice (n=8 per group) were treated as described above for the cell measurements.

[4] = system: mast cells in the mouse trachea; assay: Histamine-induced accumulation of mast cells in the mouse trachea in vivo; conditions: 20 mg/kg subcutaneous, 15 min prior to each histamine aerosol, FIG. 4
[5] = system: human eosinophils; assay: Histamine-induced eosinophil shape change (GAFS); type: cell-based; conditions: Eosinophil; human eosinophils; read-out: IC50 for inhibition of histamine-induced eosinophil shape change
Method: Human granulocytes were isolated from human blood by a Ficoll gradient. The red blood cells were lysed with 5-10× Qiagen lysis buffer at room temperature for 5-7 min. Granulocytes were harvested and washed once with FACS buffer. The cells were resuspended at a density of 2×10^6 cells/mL in reaction buffer. […] Ten minutes later, the cells were transferred to ice and fixed with 250 μL of ice-cold fixative buffer (2% formaldehyde) for 1 min.

[6] = target: human histamine H4 receptor (Homo sapiens, UniProt Q9H3N8)
human histamine H4 receptor, sequence (Q9H3N8 whole entry): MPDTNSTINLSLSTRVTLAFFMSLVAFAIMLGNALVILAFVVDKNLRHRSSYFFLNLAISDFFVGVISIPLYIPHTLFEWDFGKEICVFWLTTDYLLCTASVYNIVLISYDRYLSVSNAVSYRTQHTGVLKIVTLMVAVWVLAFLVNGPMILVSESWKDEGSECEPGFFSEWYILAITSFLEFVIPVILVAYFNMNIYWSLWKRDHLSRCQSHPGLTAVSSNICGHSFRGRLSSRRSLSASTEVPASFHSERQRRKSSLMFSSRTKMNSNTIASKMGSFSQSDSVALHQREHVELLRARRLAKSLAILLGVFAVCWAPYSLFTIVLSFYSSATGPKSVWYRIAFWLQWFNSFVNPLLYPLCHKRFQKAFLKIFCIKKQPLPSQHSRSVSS

[7] = p.o., all doses of 5 mg/kg and greater, FIG. 5
[8] = p.o., highest dose tested (50 mg/kg)

## CN1CCN(C(=O)c2nc3cc(Cl)ccc3[nH]2)CC1 [(5-Chloro-1H-benzoimidazol-2-yl)-(4-methyl-piperazin-1-yl)-methanone]
[1]
  inhibition at 1 µM: 84%
  inhibition at 10 µM: 97%
[2]; p.o., 5 mg/kg, second experiment
  macrophages in BAL fluid: reduction
[2]; p.o.
  maximum reduction in the number of eosinophils: 50%
[2]; [7]
  number of eosinophils in BAL fluid: significantly reduced
  total cell number in BAL fluid: significantly reduced
[2]; [8]
  number of macrophages in BAL fluid: reduction
  number of neutrophils in BAL fluid: increase
[2]; p.o., same doses which provided maximum reduction in eosinophils
  number of lymphocytes in BAL fluid: significantly reduced
[3]
  airway hyper-responsiveness to methacholine (Penh): reduced

## CN1CCN(C(=O)c2cc3cc(Cl)ccc3[nH]2)CC1 [(5-Chloro-1H-indol-2-yl)-(4-methyl-piperazin-1-yl)-methanone]
[4]
  histamine-induced migration of mast cells into the sub-epithelial space: blocked
[5]
  IC50: 270 nM
[2]; s.c., 60 and 100 mg/kg, FIG. 6
  number of eosinophils in BAL fluid: significantly reduced
  total cell number in BAL fluid: significantly reduced
[2]; s.c.
  maximum reduction in the number of eosinophils: 50%
[2]; s.c., same doses that provided reduction in eosinophils
  number of lymphocytes in BAL fluid: significantly reduced

## CN1CCN(C(=O)c2cc3cc(Br)ccc3[nH]2)CC1 [(5-Bromo-1H-indol-2-yl)-(4-methyl-piperazin-1-yl)-methanone]
[6]
  Ki: 8 nM

Reference: US20040127395A1 (priority 2002, published 2004)
